Source: ChEMBL document CHEMBL5724709, “EUbOPEN Chemogenomics Library - IncuCyte” (2024)

Legend:
Assay type in all cases: toxicity, cell-based
U2OS = test: Incucyte cell viability with U2OS; details: human, 24 h, 10 µM, compound concentration 10 uM
HEK-293T = test: Incucyte cell viability with HEK293T; details: human, 24 h, 10 µM, compound concentration 10 uM
Fibroblast = test: Incucyte cell viability with human fibroblast; details: 24 h, 10 µM, compound concentration 10 uM
Also: unitless GR value; below 1 slowed growth and below 0 cell loss.

Row | Structure (SMILES) | Growth Rate (U2OS; replicate number 1) | Growth Rate (U2OS; replicate number 2) | Growth Rate (HEK-293T; replicate number 1) | Growth Rate (HEK-293T; replicate number 2) | Growth Rate (Fibroblast; replicate number 1) | Growth Rate (Fibroblast; replicate number 2)
1 | COc1cc(Nc2ncc(F)c(Nc3ccc4c(n3)N(COP(=O)([O-])[O-])C(=O)C(C)(C)O4)n2)cc(OC)c1OC.O.O.O.O.O.O.[Na+].[Na+] [FOSTAMATINIB DISODIUM] | -0.2 | -0.05 | 0.05 | 0.51 | 0.41 | -0.16
2 | C[C@]12CC[C@@H]3c4ccc(O)cc4C[C@@H](CCCCCCCCC[S+]([O-])CCCC(F)(F)C(F)(F)F)[C@H]3[C@@H]1CC[C@@H]2O (stereo partly specified) [FULVESTRANT] | 0.86 | 0.65 | 0.5 | 0.53 | 1 | 
3 | C=C(C)[C@@H](CC=C(C)C)C[C@@]12C[C@@H](CC=C(C)C)C(C)(C)[C@@](CC=C(C)C)(C(=O)C(C(=O)c3ccc(O)c(O)c3)=C1O)C2=O [GARCINOL] | 1 | 0.75 | 0.69 | 0.83 | 0.23 | 1
4 | O=C(NO)c1ccc(CN(c2cnccn2)c2cnccn2)cc1 [KA-2507] | -0.27 | 0.83 | 1 |  | 1 | 0.97
5 | C[C@]12O[C@H](C[C@]1(O)CO)n1c3ccccc3c3c4c(c5c6ccccc6n2c5c31)CNC4=O [LESTAURTINIB] | 0.59 | 0.46 | 0.16 | 0.41 | 1 | 
6 | CCNC(=O)c1noc(-c2cc(C(C)C)c(O)cc2O)c1-c1ccc(CN2CCOCC2)cc1 [LUMINESPIB] | -0.21 | 0 | -0.29 | -0.15 | -0.02 | -0.27
7 | CNc1ncc2cc(-c3cc(NC(=O)NCCC(C)(C)C)c(F)cc3C)c(C)nc2n1 [LY-3009120] | -0.28 | 0.07 | 0.3 | 0.63 | -0.76 | -0.55
8 | CC#C[C@]1(O)CC[C@H]2[C@@H]3CCC4=CC(=O)CCC4=C3[C@@H](c3ccc(N(C)C)cc3)C[C@@]21C [MIFEPRISTONE] | 0.84 | 0.66 | 0.49 | 1 | 1 | 
9 | Nc1ccccc1NC(=O)c1ccc(CNc2nccc(-c3cccnc3)n2)cc1 [MOCETINOSTAT] | -0.13 | 0.28 | 0.33 | 0.39 | 1 | -0.28
10 | CCCCN(Cc1ccc(C(=O)NO)cc1)C(=O)Nc1ccccc1 [NEXTURASTAT A] | -0.18 | 0.6 | 1 |  | 1 | -0.22
11 | CC(C)(F)C[C@H](N[C@@H](c1ccc(-c2ccc(S(C)(=O)=O)cc2)cc1)C(F)(F)F)C(=O)NC1(C#N)CC1 [ODANACATIB] | 0.65 | 1 | 0.9 | 0.87 | 0.39 | 1
12 | CC(C)c1cc(C(=O)N2Cc3ccc(CN4CCN(C)CC4)cc3C2)c(O)cc1O [ONALESPIB] | -0.07 | 0.05 | -0.26 | -0.15 | 0.29 | 0.25
13 | Nc1nc2cc(CC[C@H]3C[C@@H](n4ccc5c(N)ncnc54)[C@H](O)[C@@H]3O)ccc2cc1Br [ONAMETOSTAT] | 0.19 | 1 | -0.14 | -0.01 | 0.43 | 0.06
14 | COc1ccc2c(c1)OC(C)(C)C(c1ccccc1)C2c1ccc(OCCN2CCCC2)cc1 (stereo unspecified) [ORMELOXIFENE] | 1 | 0.75 | 0.93 | 0.92 | 1 | 0.9
15 | CC(=O)N1CCC(Nc2cc(C(=O)NC[C@H](O)CN3CCc4ccccc4C3)ncn2)CC1 [PEMRAMETOSTAT] | 0.26 | 1 | 0.9 | 1 | 1 | 
16 | CC(C)N(C[C@H]1O[C@@H](n2cnc3c(N)ncnc32)[C@H](O)[C@@H]1O)[C@H]1C[C@@H](CCc2nc3cc(C(C)(C)C)ccc3[nH]2)C1 [PINOMETOSTAT] | 1 | 0.85 | 0.61 | 0.77 | 1 | 
17 | COc1cc(Nc2ncc(F)c(Nc3ccc4c(n3)NC(=O)C(C)(C)O4)n2)cc(OC)c1OC [R-406] | -0.31 | -0.21 | 0.1 | 0.27 | -0.02 | -0.68
18 | O=C(CCCCCCNC(=O)c1cnc(N(c2ccccc2)c2ccccc2)nc1)NO [RICOLINOSTAT] | 0 | 0.16 | 0.73 | 1 | 0.23 | -0.16
19 | C/C=C1\NC(=O)[C@H]2CSSCC/C=C/[C@H](CC(=O)N[C@H](C(C)C)C(=O)N2)OC(=O)[C@H](C(C)C)NC1=O [ROMIDEPSIN] | 1 | 0.29 | 0.73 |  | 0.96 | -0.41
20 | Nc1ncnc2c1ncn2[C@@H]1O[C@H](C[C@@H](N)CC[C@H](N)C(=O)O)[C@@H](O)[C@H]1O [SINEFUNGIN] | 0.54 | 1 | 0.85 | 0.88 | 0.66 | -0.28
21 | Cc1ccc(C(=O)Nc2ccc(S(=O)(=O)[O-])c3cc(S(=O)(=O)[O-])cc(S(=O)(=O)[O-])c23)cc1NC(=O)c1cccc(NC(=O)Nc2cccc(C(=O)Nc3cc(C(=O)Nc4ccc(S(=O)(=O)[O-])c5cc(S(=O)(=O)[O-])cc(S(=O)(=O)[O-])c45)ccc3C)c2)c1.[Na+].[Na+].[Na+].[Na+].[Na+].[Na+] [SURAMIN HEXASODIUM] | 1 |  | 0.7 | 0.83 | 0.42 | 0.59
22 | CCN(c1cc(-c2ccc(CN3CCOCC3)cc2)cc(C(=O)NCc2c(C)cc(C)[nH]c2=O)c1C)C1CCOCC1 [TAZEMETOSTAT] | 0.43 | 0.87 | 0.68 | 0.82 | 0.54 | 
23 | O=C(CCCCCCC(=O)Nc1ccc([C@H]2O[C@@H](CSc3nc(-c4ccccc4)c(-c4ccccc4)o3)C[C@@H](c3ccc(CO)cc3)O2)cc1)NO [TUBACIN] | 1 | 0.73 | 0.85 | 1 | 1 | -0.34
24 | Nc1cc(F)ccc1NC(=O)c1ccc(CNC(=O)/C=C/c2cccnc2)cc1 [TUCIDINOSTAT] | -0.5 | 0.82 | 1 |  | 1 | 
25 | CC(=O)O[C@]1(C(C)=O)CC[C@H]2[C@@H]3CCC4=CC(=O)CCC4=C3[C@@H](c3ccc(N(C)C)cc3)C[C@@]21C [ULIPRISTAL ACETATE] | 0.94 | 0.78 | 0.78 | 0.96 | 0.18 | 0.99
26 | CC(C)Nc1cc(-c2c[nH]c(C(=O)N[C@H](CO)c3cccc(Cl)c3)c2)c(Cl)cn1 [ULIXERTINIB] | 0.68 | 0.74 | 1 |  | 0.93 | 0.08
27 | Cc1cc(C)c(CNC(=O)c2cc(Cl)c3c(c2C)O[C@@](C)([C@H]2CC[C@H](N(C)C)CC2)O3)c(=O)[nH]1 [VALEMETOSTAT] | 0.4 | 0.98 | 0.77 | 0.96 | 1 | 0.46
28 | COc1cc2c(Nc3ccc(Br)cc3F)ncnc2cc1OCC1CCN(C)CC1 [VANDETANIB] | -0.56 | 0.01 | -0.15 | 0.26 | 0.22 | -0.22
29 | Cc1nc(-c2cnc(NC(C)C)n(C)c2=O)ccc1Oc1ccnc(-c2cnn(C)c2)c1 [VIMSELTINIB] | 0.42 | 0.46 | 0.39 | 0.02 | 0.29 | -0.35
